Measured values reported in patent publication US20230265151A1, “GIP/GLP1 CO-AGONIST COMPOUNDS” (priority 2020, published 2023).
Where two headings read alike, the source gives them in different places. *1 amine or outer side, *2 acyl side, *3 side chain or, on linkers, in order; H or OH if unused. Where a SMILES comes first, the peptide text is derived from it. Side-chain parts run from the residue outwards. [ ]: non-standard residue; d: D form. The star is where a group is joined. αMePhe(2-F) = C[C@](N)(Cc1ccccc1F)C(=O)O; γGlu = O=C(O)[C@H](CCC(=O)[*:2])N[*:1]; αMeY = C[C@](N)(Cc1ccc(O)cc1)C(=O)O; αMeF = C[C@](N)(Cc1ccccc1)C(=O)O; 4Pal = N[C@@H](Cc1ccncc1)C(=O)O; αMeL = CC(C)C[C@](C)(N)C(=O)O; Lauroyl = CCCCCCCCCCCC(=O)*; Orn = NCCC[C@H](N)C(=O)O; AEEA = NCCOCCOCC(=O)O; Aib = CC(C)(N)C(=O)O

Tests used:
hGCGR = target: T1, hGCGR (Homo sapiens, UniProt P47871); assay: Functional cAMP formation (HTRF) in HEK-293 clonal cells expressing hGCGR, 0.1% bovine casein, without or with 1.0% human serum albumin; format: cell-based
T1 construct: expressed in transfected cells
T1 sequence (P47871 26-477): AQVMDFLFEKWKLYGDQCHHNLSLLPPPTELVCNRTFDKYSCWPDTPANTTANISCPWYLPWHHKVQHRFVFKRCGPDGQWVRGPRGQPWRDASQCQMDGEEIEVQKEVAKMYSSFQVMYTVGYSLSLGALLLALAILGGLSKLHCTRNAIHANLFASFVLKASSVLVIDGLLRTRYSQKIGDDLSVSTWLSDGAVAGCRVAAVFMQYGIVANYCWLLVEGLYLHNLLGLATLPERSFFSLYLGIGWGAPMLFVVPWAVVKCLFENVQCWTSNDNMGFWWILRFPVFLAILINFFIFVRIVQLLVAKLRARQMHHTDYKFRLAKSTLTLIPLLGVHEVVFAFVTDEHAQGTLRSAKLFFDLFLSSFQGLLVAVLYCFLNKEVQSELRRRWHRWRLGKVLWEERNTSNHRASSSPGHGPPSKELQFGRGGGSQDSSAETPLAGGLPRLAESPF
Summary of the method: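 Readings of the HTRF 665/620 nm ratio, which falls as cAMP rises, were converted to nM cAMP using a standard curve after 30 min peptide exposure at 37° C.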

hGLP-1R = hGLP-1R (Homo sapiens, UniProt P43220); assay: Functional cAMP formation (HTRF) in HEK-293 clonal cells expressing hGLP-1R, 0.1% bovine casein, without or with 1.0% human serum albumin; format: cell-based; design: expressed in transfected cells; conditions: for EC50: cAMP, 0.1% bovine casein (no human serum albumin), geometric mean
Sequence of hGLP-1R (P43220 24-463): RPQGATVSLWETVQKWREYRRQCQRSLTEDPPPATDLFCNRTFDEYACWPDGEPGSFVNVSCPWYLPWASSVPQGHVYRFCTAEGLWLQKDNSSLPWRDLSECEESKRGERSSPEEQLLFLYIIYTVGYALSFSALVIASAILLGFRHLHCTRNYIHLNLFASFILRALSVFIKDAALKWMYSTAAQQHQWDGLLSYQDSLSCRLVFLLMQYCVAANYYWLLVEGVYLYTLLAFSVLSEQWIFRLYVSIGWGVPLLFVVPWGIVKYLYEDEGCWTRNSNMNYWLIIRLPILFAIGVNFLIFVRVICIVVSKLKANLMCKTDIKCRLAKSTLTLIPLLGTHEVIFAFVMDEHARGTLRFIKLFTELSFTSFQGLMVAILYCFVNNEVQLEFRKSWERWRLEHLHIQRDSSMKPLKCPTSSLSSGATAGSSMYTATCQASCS
Experimental: After a 30-min incubation at 37° C., the resulting increase in intracellular cAMP is quantitatively determined using a CisBio cAMP Dynamic 2 HTRF Assay Kit (62AM4PEJ). Briefly, cAMP levels within the cell are detected by adding the cAMP-d2 conjugate in cell lysis buffer (10 µL) followed by the antibody anti-cAMP-Eu^3+-Cryptate, also in cell lysis buffer (10 µL). The resulting competitive assay is incubated for at least 60 min at room temperature, and then is detected using a PerkinElmer Envision® instrument with excitation at 320 nm and emission at 665 nm and 620 nm. Envision units (emission at 665 nm/620 nm* 10,000) are inversely proportional to the amount of cAMP present and are converted to nM cAMP per well us-ing a cAMP standard curve. […] A relative EC50 value and percent top (Emax) are derived by non-linear regression analysis using the percent maximal response vs. the concentration of peptide added, fitted to a four-parameter logistic equation.

[1] = cAMP, 37° C., 0.1% bovine casein (no human serum albumin), geometric mean, read-out: hGCGR EC50, nM (SEM, n)
[2] = HEK293, cAMP, 37° C., 0.1% bovine casein, percent of maximal response to GLP-1(7-36)NH2, arithmetic mean, read-out: hGLP-1R Emax, % ± SEM
[3] = 37° C., read-out: hGLP-1R EC50, nM (SEM, n)

## CC[C@H](C)[C@H](NC(=O)[C@H](CC(C)C)NC(=O)[C@](C)(Cc1ccc(O)cc1)NC(=O)[C@@H](CCC(=O)O)NC(=O)[C@@H](NC(=O)[C@H](Cc1ccccc1)NC(=O)[C@H](CCC(=O)O)NC(=O)[C@H](CCCN)NC(=O)[C@H](CCC(N)=O)NC(=O)[C@H](C)NC(=O)[C@H](CCCCNC(=O)COCCOCCNC(=O)COCCOCCNC(=O)CC[C@H](NC(=O)CCCCCCCCCCCCC(=O)O)C(=O)O)NC(=O)[C@H](CCCN)NC(=O)[C@H](CC(=O)O)NC(=O)[C@H](CC(C)C)NC(=O)[C@](C)(CC(C)C)NC(=O)[C@@H](NC(=O)[C@H](CO)NC(=O)[C@H](Cc1ccncc1)NC(=O)[C@H](CC(=O)O)NC(=O)[C@H](CO)NC(=O)[C@@H](NC(=O)[C@](C)(Cc1ccccc1F)NC(=O)[C@@H](NC(=O)CNC(=O)[C@H](CCC(=O)O)NC(=O)C(C)(C)NC(=O)[C@@H](N)Cc1ccc(O)cc1)[C@@H](C)O)[C@@H](C)O)[C@@H](C)CC)[C@@H](C)CC)C(=O)N[C@@H](CCC(=O)O)C(=O)NCC(=O)NCC(=O)N[C@@H](CCCCNC(=O)COCCOCCNC(=O)COCCOCCNC(=O)CC[C@H](NC(=O)CCCCCCCCCCCCC(=O)O)C(=O)O)C(=O)N[C@@H](CO)C(=O)N[C@@H](CO)C(=O)NCC(=O)N[C@@H](C)C(=O)N1CCC[C@H]1C(=O)N1CCC[C@H]1C(=O)N1CCC[C@H]1C(=O)N[C@@H](CO)C(N)=O [Example 149]
hGCGR; cAMP, incubated at 37° C., 0.1% bovine casein (no human serum albumin), geometric mean, read-out: hGCGR EC50, nM (SEM, n)
  EC50: > 9950 nM
hGLP-1R; HEK293, percent of maximal response to GLP-1(7-36)NH2, 37° C., 0.1% bovine casein, arithmetic mean, read-out: hGLP-1R Emax, % ± SEM
  Emax: 98.3 ± 0.579%
hGLP-1R; incubated at 37° C., read-out: hGLP-1R EC50, nM (SEM, n)
  EC50: 1.5 nM

## CC[C@H](C)[C@H](NC(=O)[C@H](CC(C)C)NC(=O)[C@](C)(Cc1ccc(O)cc1)NC(=O)[C@H](CCCCNC(=O)[C@@H](N)CCCCNC(=O)CC[C@H](NC(=O)CCCCCCCCCCCCC(=O)O)C(=O)O)NC(=O)[C@@H](NC(=O)[C@H](Cc1ccccc1)NC(=O)[C@H](CCC(=O)O)NC(=O)C(C)(C)NC(=O)[C@H](CCC(N)=O)NC(=O)[C@H](C)NC(=O)[C@H](CCCCNC(=O)[C@@H](N)CCCCNC(=O)CC[C@H](NC(=O)CCCCCCCCCCCCC(=O)O)C(=O)O)NC(=O)[C@H](CCCN)NC(=O)[C@H](CC(=O)O)NC(=O)[C@H](CC(C)C)NC(=O)[C@](C)(CC(C)C)NC(=O)[C@@H](NC(=O)C(C)(C)NC(=O)[C@@H](NC(=O)[C@H](CC(=O)O)NC(=O)[C@H](CO)NC(=O)[C@@H](NC(=O)[C@](C)(Cc1ccccc1F)NC(=O)[C@@H](NC(=O)CNC(=O)[C@H](CCC(=O)O)NC(=O)C(C)(C)NC(=O)[C@@H](N)Cc1ccc(O)cc1)[C@@H](C)O)[C@@H](C)O)C(C)C)[C@@H](C)CC)[C@@H](C)CC)C(=O)N[C@@H](CCC(=O)O)C(=O)NCC(=O)NCC(=O)N1CCC[C@H]1C(=O)N[C@@H](CO)C(=O)N[C@@H](CO)C(=O)NCC(=O)N[C@@H](C)C(=O)N1CCC[C@H]1C(=O)N1CCC[C@H]1C(=O)N1CCC[C@H]1C(=O)N[C@@H](CO)C(N)=O [Example 167]
hGCGR; hGCGR EC50, nM (SEM, n), cAMP, incubated at 37° C., 0.1% bovine casein (no human serum albumin), geometric mean
  EC50: > 9950 nM
hGLP-1R; HEK293, read-out: hGLP-1R Emax, % ± SEM, percent of maximal response to GLP-1(7-36)NH2, 37° C., 0.1% bovine casein, arithmetic mean
  Emax: 91.4 ± 3.21%
hGLP-1R; hGLP-1R EC50, nM (SEM, n), incubated at 37° C.
  EC50: 0.217 nM

## CC[C@H](C)[C@H](NC(=O)[C@H](CC(C)C)NC(=O)[C@](C)(Cc1ccc(O)cc1)NC(=O)[C@@H](CCC(=O)O)NC(=O)[C@@H](NC(=O)[C@H](Cc1ccccc1)NC(=O)[C@H](CCC(=O)O)NC(=O)C(C)(C)NC(=O)[C@H](CCC(N)=O)NC(=O)[C@H](C)NC(=O)[C@H](CCCCNC(=O)COCCOCCNC(=O)COCCOCCNC(=O)CC[C@H](NC(=O)CCCCCCCCCCCCC(=O)O)C(=O)O)NC(=O)[C@H](CCCN)NC(=O)[C@H](CC(=O)O)NC(=O)[C@H](CC(C)C)NC(=O)[C@](C)(CC(C)C)NC(=O)[C@@H](NC(=O)[C@H](CO)NC(=O)[C@H](Cc1ccc2ccccc2c1)NC(=O)[C@H](CC(=O)O)NC(=O)[C@H](CO)NC(=O)[C@@H](NC(=O)[C@](C)(Cc1ccccc1F)NC(=O)[C@@H](NC(=O)CNC(=O)[C@H](CCC(=O)O)NC(=O)C(C)(C)NC(=O)[C@@H](N)Cc1ccc(O)cc1)[C@@H](C)O)[C@@H](C)O)[C@@H](C)CC)[C@@H](C)CC)C(=O)N[C@@H](CCCCNC(=O)COCCOCCNC(=O)COCCOCCNC(=O)CC[C@H](NC(=O)CCCCCCCCCCCCC(=O)O)C(=O)O)C(=O)NCC(=O)NCC(=O)N1CCC[C@H]1C(=O)N[C@@H](CO)C(=O)N[C@@H](CO)C(=O)NCC(=O)N[C@@H](C)C(=O)N1CCC[C@H]1C(=O)N1CCC[C@H]1C(=O)N1CCC[C@H]1C(=O)N[C@@H](CO)C(N)=O [Example 250]
hGCGR; 0.1% bovine casein and 1.0% human serum albumin, 37° C., geometric mean, read-out: hGCGR EC50, nM (SEM, n)
  EC50: > 9950 nM
hGCGR; [1]
  EC50: > 9950 nM
hGLP-1R; [2]
  Emax: 114%
hGLP-1R; [3]
  EC50: 0.414 nM

## CCCCCCCCCCCC(=O)N[C@@H](CCC(=O)NCCOCCOCC(=O)NCCOCCOCC(=O)NCCOCCOCC(=O)NCCCC[C@H](NC(=O)[C@H](CO)NC(=O)[C@@H]1CCCN1C(=O)[C@@H]1CCCN1C(=O)[C@@H]1CCCN1C(=O)[C@H](C)NC(=O)CNC(=O)[C@H](CO)NC(=O)[C@H](CO)NC(=O)[C@@H]1CCCN1C(=O)CNC(=O)CNC(=O)[C@H](CCC(=O)O)NC(=O)[C@@H](NC(=O)[C@H](CC(C)C)NC(=O)[C@](C)(Cc1ccc(O)cc1)NC(=O)[C@@H](CCC(=O)O)NC(=O)[C@@H](NC(=O)[C@](C)(Cc1ccccc1)NC(=O)[C@H](CCC(=O)O)NC(=O)C(C)(C)NC(=O)[C@H](CCC(N)=O)NC(=O)[C@H](C)NC(=O)[C@H](CCCCNC(=O)COCCOCCNC(=O)COCCOCCNC(=O)COCCOCCNC(=O)CC[C@H](NC(=O)CCCCCCCCCCC)C(=O)O)NC(=O)[C@H](CCCN)NC(=O)[C@H](CC(=O)O)NC(=O)[C@H](CC(C)C)NC(=O)[C@](C)(CC(C)C)NC(=O)[C@@H](NC(=O)C(C)(C)NC(=O)[C@H](Cc1ccncc1)NC(=O)[C@H](CC(=O)O)NC(=O)[C@H](CO)NC(=O)[C@@H](NC(=O)[C@](C)(Cc1ccccc1F)NC(=O)[C@@H](NC(=O)CNC(=O)[C@H](CCC(=O)O)NC(=O)C(C)(C)NC(=O)[C@@H](N)Cc1ccc(O)cc1)[C@@H](C)O)[C@@H](C)O)[C@@H](C)CC)[C@@H](C)CC)[C@@H](C)CC)C(N)=O)C(=O)O [Example 439] (H-Y[Aib]EGT[αMePhe(2-F)]TSD[4Pal][Aib]I[αMeL]LD[Orn]K([AEEA-AEEA-AEEA-γGlu-Lauroyl])AQ[Aib]E[αMeF]I[dE][αMeY]LIEGGPSSGAPPPSK([AEEA-AEEA-AEEA-γGlu-Lauroyl])-NH2)
hGCGR; [1]
  EC50: > 9950 nM
hGCGR; cAMP, 37° C., 0.1% bovine casein and 1.0% human serum albumin, geometric mean (SEM, n), read-out: hGCGR EC50, nM (SEM, n)
  EC50: > 9950 nM
hGLP-1R; HEK293, cAMP, 37° C., 0.1% bovine casein and 1.0% human serum albumin, percent of maximal response to GLP-1(7-36)NH2, read-out: hGLP-1R Emax, % ± SEM
  Emax: 97%
hGLP-1R; [2]
  Emax: 95.7%
hGLP-1R; [3]
  EC50: 0.11 nM
